Test results taken from patent publication US20220050094A1, “Application of the apparent volume of distribution in extraction technologies and pharmacokinetics” (priority 2020, published 2022).

Assay: clinical
Conditions: human, in vivo
Excerpt: We claim that these volumes represent the physiological volumes of extracellular fluid compartments that receive the drug with different kinetic rates. Total exclusion of the drug from intracellular fluids is most plausible considering the highly polar and hydrophilic nature of sisomicin. Alternatively, the peripheral compartment could be considered to be interstitial fluid as a different phase of slightly higher drug affinity, where steric hindrance and binding to the negatively charged components of the extracellular matrix retards drug movement. […] The explicit solutions to the two-compartment model as a function of real time provide estimates of drug concentration upon repeated dosing (U.S. patent application Ser. No. 16/992,658). These drug concentrations at momentary distribution equilibrium (teq) can be used to determine the drug's apparent volume of distribution.
Eq. 21, can be used to assess a substance apparent volume of distribution associated with the phase of the central compartment, but only if the central compartment is a single phase. Using eq. 21, Vd,1 was calculated to be equal to 11.78 L. The equilibrium time of intercompartmental drug distribution teq is calculated from eq.
Eur J Clin Pharmacol. 1976; 10: 251-256. […]

Structure (SMILES): CN[C@@H]1[C@@H](O)[C@@H](O[C@@H]2[C@@H](O)[C@H](O[C@H]3OC(CN)=CC[C@H]3N)[C@@H](N)C[C@H]2N)OC[C@]1(C)O [sisomicin]
- Vd: 11.8 L
